{"source": "paper PMC9673142", "about": "“1,3-Diarylpyrazolyl-acylsulfonamides Target HadAB/BC Complex in Mycobacterium tuberculosis” (ACS Infectious Diseases, 2022)", "key": {"Mtb": {"system": "Mtb", "type": "cell-based, Mycobacterium tuberculosis"}, "[1]": {"molecular_target": "HadA, HadB, BCG_0547c (HadD) (Mycobacterium bovis BCG, UniProt I6WYY7+P9WFK1)", "test": "biochemical", "type": "binding", "settings": "for competition from the bead matrices, HadA, HadB and HadD: at 0.49 μM, n = 3"}, "Mtb HadBC": {"system": "Mtb HadBC", "type": "biochemical", "settings": "compound 50 μM, HadBC 130 nM, trans-2-C16:1-CoA 25 μM"}, "Mtb H37Rv": {"system": "Mtb H37Rv", "test": "microbe, parasite or virus in culture", "type": "cell-based", "settings": "Mycobacterium tuberculosis"}, "Mtb H37Rv mc^26206": {"system": "Mtb H37Rv mc^26206", "test": "microbe, parasite or virus in culture", "type": "cell-based", "settings": "Mycobacterium tuberculosis, read-out: MIC Mtb WT"}, "BCG_2231 (DlaT, Rv2215)": {"molecular_target": "BCG_2231 (DlaT, Rv2215) (Mycobacterium bovis, UniProt P65634)", "test": "biochemical", "type": "binding, Mycobacterium bovis BCG"}, "HepG2": {"system": "HepG2", "test": "HepG2 cytotoxicity", "settings": "Homo sapiens"}, "Mtb HadAB": {"molecular_target": "Mtb HadAB (Mycobacterium tuberculosis, UniProt I6WYY7+P9WFK1)", "test": "biochemical", "settings": "trans-2-C16:1-CoA 60 μM, mean ± SD of duplicate assays"}, "[2]": {"system": "mycolic acid biosynthesis in Mtb H37Rv mc^26206", "type": "cell-based", "settings": "3× MIC, 24 h"}, "Mtb H37RvMA": {"system": "Mtb H37RvMA", "test": "microbe, parasite or virus in culture", "type": "cell-based", "settings": "Middlebrook 7H9/glycerol/ADC/tween-80"}, "[3]": {"molecular_target": "T1, BCG_0628c (lpqN, Rv0583c) (Mycobacterium tuberculosis, UniProt O53780)", "T1 sequence (O53780 20-228)": "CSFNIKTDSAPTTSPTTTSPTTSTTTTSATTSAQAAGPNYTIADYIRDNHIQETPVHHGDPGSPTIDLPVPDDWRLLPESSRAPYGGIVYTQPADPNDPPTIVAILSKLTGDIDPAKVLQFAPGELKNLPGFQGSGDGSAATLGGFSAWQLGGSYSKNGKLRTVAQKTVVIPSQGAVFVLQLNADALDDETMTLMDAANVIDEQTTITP", "test": "biochemical", "type": "binding, Mycobacterium bovis BCG"}, "[4]": {"settings": "HepG2, read-out: HepG2 IC50 (galactose)"}, "[5]": {"settings": "HepG2, read-out: HepG2 IC50 (glucose)"}}, "note": "Several values for one entry are separate records, joined by “and”; a condition that tells them apart may be missing. Equal values may be shown once. Entries after “also recorded” stand apart in the source; their conditions may differ. Read-outs that look alike come from different tables or passages of the source."}
{"smiles": "CS(=O)(=O)NC(=O)CCc1cn(-c2ccc(Cl)cc2)nc1-c1ccc(C#CCN)cc1", "note": "[Compound 4]", "values": [{"measurement": "Mtb pMIC99", "setting": "Mtb", "result": 5.4}]}
{"smiles": "CS(=O)(=O)NC(=O)CCc1cn(-c2ccc(Cl)cc2)nc1-c1ccc(Cl)cc1", "note": "[Compound 2]", "values": [{"measurement": "solubility", "setting": "physchem", "result": 100, "unit": "µM"}, {"measurement": "IC50", "setting": "[1]", "result": "< 490", "unit": "nM"}, {"measurement": "competition from the bead matrices, HadA, HadB and HadD", "setting": "[1]", "result": "56–62%"}, {"measurement": "HadBC % inhibition at 50 μM", "setting": "Mtb HadBC", "result": "did not inhibit; also recorded: No inhibition"}, {"measurement": "MIC", "setting": "Mtb H37Rv; read-out: Mtb MIC", "result": 4.7, "unit": "µM"}, {"measurement": "MIC", "setting": "Mtb H37Rv; read-out: Mtb MIC (Middlebrook 7H9/DPCC/casitone/Tx)", "result": 0.8, "unit": "µM"}, {"measurement": "MIC", "setting": "Mtb H37Rv; read-out: Mtb MIC (Middlebrook 7H9/DPPC/cholesterol/BSA/Tx)", "result": 4.7, "unit": "µM"}, {"measurement": "MIC", "setting": "Mtb H37Rv; read-out: Mtb MIC (Middlebrook 7H9/casitone/Tx)", "result": 0.6, "unit": "µM"}, {"measurement": "MIC", "setting": "Mtb H37Rv; read-out: Mtb MIC (Middlebrook 7H9/glucose/BSA/Tx)", "result": 4.7, "unit": "µM"}, {"measurement": "MIC", "setting": "Mtb H37Rv mc^26206", "result": "< 0.625", "unit": "µM"}, {"measurement": "Kd", "setting": "BCG_2231 (DlaT, Rv2215)", "result": 6600, "unit": "nM"}, {"measurement": "IC50", "setting": "HepG2; [4]", "result": "> 50000", "unit": "nM"}, {"measurement": "IC50", "setting": "HepG2; [5]", "result": "> 50000", "unit": "nM"}, {"measurement": "Mtb pMIC99", "setting": "Mtb", "result": 5.5}, {"measurement": "IC50", "setting": "Mtb HadAB; HadAB IC50, HadAB 22 nM", "result": "130 ± 20", "unit": "nM"}]}
{"smiles": "CS(=O)(=O)NC(=O)CCc1cn(-c2ccc(Br)cc2)nc1-c1ccc(Cl)cc1", "note": "[Compound 9]", "values": [{"measurement": "IC50", "setting": "Mtb HadAB; HadAB 22 nM, read-out: HadAB IC50", "result": "30 ± 10", "unit": "nM"}]}
{"smiles": "CS(=O)(=O)c1nnc(Cc2cn(-c3ccc(Cl)cc3)nc2-c2ccncc2)o1", "note": "[Compound 13]", "values": [{"measurement": "inhibition of biosynthesis of mycolic acids", "setting": "[2]", "result": "0–49%"}, {"measurement": "HadBC % inhibition at 50 μM", "setting": "Mtb HadBC", "result": "37±5", "unit": "%"}, {"measurement": "MIC", "setting": "Mtb H37Rv; read-out: Mtb MIC", "result": 62.5, "unit": "µM"}, {"measurement": "MIC", "setting": "Mtb H37Rv mc^26206", "result": 3.75, "unit": "µM"}, {"measurement": "IC50", "setting": "Mtb HadAB; HadAB IC50, HadAB 22 nM", "result": "102000 ± 17000", "unit": "nM"}]}
{"smiles": "O=c1[nH]nc(CCc2cn(-c3ccc(Br)cc3)nc2-c2ccc(Cl)cc2)o1", "note": "[Compound 12]", "values": [{"measurement": "MIC", "setting": "Mtb H37Rv; read-out: Mtb MIC", "result": 19, "unit": "µM"}, {"measurement": "MIC", "setting": "Mtb H37Rv mc^26206", "result": 3.12, "unit": "µM"}, {"measurement": "IC50", "setting": "Mtb HadAB; HadAB IC50, HadAB 22 nM", "result": "4240 nM and 4200 nM"}]}
{"smiles": "CS(=O)(=O)NC(=O)NCc1cc(-c2ccc(Br)cc2)oc1-c1ccncc1", "note": "[Compound 14]", "values": [{"measurement": "MIC", "setting": "Mtb H37Rv mc^26206", "result": "< 0.243", "unit": "µM"}, {"measurement": "IC50", "setting": "Mtb HadAB; HadAB IC50, HadAB 22 nM", "result": "20 ± 10", "unit": "nM"}]}
{"smiles": "CS(=O)(=O)NC(=O)CCc1cn(-c2ccc(Br)cc2)nc1-c1ccncc1", "note": "[Compound 1]", "values": [{"measurement": "Compound 1 MIC, H37RvMA (WT reference strain)", "setting": "Mtb H37RvMA", "result": 1.9, "unit": "µM"}, {"measurement": "MIC", "setting": "Mtb H37RvMA; Mycobacterium tuberculosis, H37RVMA, read-out: Compound 1 MIC, H37RvMA (WT reference strain)", "result": 1.9, "unit": "µM"}, {"measurement": "solubility", "setting": "physchem", "result": 190, "unit": "µM"}, {"measurement": "IC50", "setting": "[1]", "result": "< 160", "unit": "nM"}, {"measurement": "competition from the bead matrices, HadA, HadB and HadD", "setting": "[1]", "result": "91–92%"}, {"measurement": "Kd", "setting": "BCG_2231 (DlaT, Rv2215)", "result": 1000, "unit": "nM"}, {"measurement": "IC50", "setting": "HepG2; [4]", "result": "> 50000", "unit": "nM"}, {"measurement": "IC50", "setting": "HepG2; [5]", "result": "> 50000", "unit": "nM"}, {"measurement": "Mtb pMIC99", "setting": "Mtb", "result": 6.2}, {"measurement": "IC50", "setting": "Mtb HadAB; HadAB IC50, HadAB 22 nM", "result": "100 ± 10", "unit": "nM"}, {"measurement": "Kd", "setting": "[3]", "result": 1800, "unit": "nM"}]}
{"smiles": "O=C(O)CCc1cn(-c2ccc(Br)cc2)nc1-c1ccc(Cl)cc1", "note": "[Compound 10]", "values": [{"measurement": "HadBC % inhibition at 50 μM", "setting": "Mtb HadBC", "result": "No inhibition"}, {"measurement": "MIC", "setting": "Mtb H37Rv; read-out: Mtb MIC", "result": "> 50", "unit": "µM"}, {"measurement": "MIC", "setting": "Mtb H37Rv mc^26206", "result": 1.5, "unit": "µM"}, {"measurement": "IC50", "setting": "Mtb HadAB; HadAB IC50, HadAB 22 nM", "result": "3300 ± 1700", "unit": "nM"}]}
{"smiles": "CCc1c(COC(=O)NS(C)(=O)=O)c(-c2ccc(Cl)cc2)nn1-c1ccc(Cl)cc1", "note": "[Compound 15]", "values": [{"measurement": "HadBC % inhibition at 50 μM", "setting": "Mtb HadBC", "result": "No inhibition"}, {"measurement": "MIC", "setting": "Mtb H37Rv; read-out: Mtb MIC", "result": "> 50", "unit": "µM"}, {"measurement": "MIC", "setting": "Mtb H37Rv mc^26206", "result": 3.9, "unit": "µM"}, {"measurement": "IC50", "setting": "Mtb HadAB; HadAB IC50, HadAB 22 nM", "result": 28000, "unit": "nM"}]}
{"smiles": "CS(=O)(=O)NC(=O)NCc1cn(-c2ccc(C(F)(F)F)nc2)nc1-c1ccncc1", "note": "[Compound 11]", "values": [{"measurement": "MIC", "setting": "Mtb H37Rv mc^26206", "result": 0.625, "unit": "µM"}, {"measurement": "IC50", "setting": "Mtb HadAB; HadAB IC50, HadAB 22 nM", "result": "62 nM and 60 nM"}]}
